One series concerns Hepatotoxicity. Put plainly: FDA HLAED, serum glutamic pyruvic transaminase (SGPT) increase. The settings on record: human.
In the case of `C[C@]12CC[C@H]3[C@@H](CCC4=CC(=O)CC[C@@]43C)[C@@H]1CC[C@@H]2O` [TESTOSTERONE], the “SGPT Increase - Activity Score” value is on record as “Inactive”, the “SGPT Increase - Index Value” is listed as 7.2 and the “SGPT Increase - Number of Reports” value is below 4.

As to `Cn1c(=O)c2[nH]cnc2n(C)c1=O.O` [THEOPHYLLINE], the “SGPT Increase - Activity Score” value is reported as “Inactive”, the “SGPT Increase - Index Value” came to 0 and the “SGPT Increase - Number of Reports” value is given as below 4.

`Clc1ccccc1CN1CCc2sccc2C1` [TICLOPIDINE]: the “SGPT Increase - Activity Score” value is given as “Inactive”, the “SGPT Increase - Index Value” is given as 0 and the “SGPT Increase - Number of Reports” value is given as below 4.

As for `CC(C)(C)NC[C@H](O)COc1nsnc1N1CCOCC1` [TIMOLOL], the “SGPT Increase - Activity Score” value is recorded as “Inactive”, the “SGPT Increase - Index Value” is on record as 0.1 and the “SGPT Increase - Number of Reports” value was below 4.

For the molecule `Clc1ccc(C(Cn2ccnc2)OCc2ccsc2Cl)c(Cl)c1` (stereo not given) [TIOCONAZOLE], the “SGPT Increase - Activity Score” value is “Inactive”, the “SGPT Increase - Index Value” was determined as 0 and the “SGPT Increase - Number of Reports” value was below 4.

In the next series the test system is Hepatotoxicity. Nature of the series: FDA HLAED, serum glutamic oxaloacetic transaminase (SGOT) increase. Conditions: human.
As to `C[C@]12CC[C@H]3[C@@H](CCC4=CC(=O)CC[C@@]43C)[C@@H]1CC[C@@H]2O` [TESTOSTERONE], the “SGOT Increase - Activity Score” value is on record as “Inactive”, the “SGOT Increase - Index Value” was determined as 4.8 and the “SGOT Increase - Number of Reports” value was below 4.

Regarding `Cn1c(=O)c2[nH]cnc2n(C)c1=O.O` [THEOPHYLLINE], the “SGOT Increase - Activity Score” value was “Inactive”, the “SGOT Increase - Index Value” turned out to be 0 and the “SGOT Increase - Number of Reports” value is below 4.

Take `Clc1ccccc1CN1CCc2sccc2C1` [TICLOPIDINE]: the “SGOT Increase - Activity Score” value is “Inactive”, the “SGOT Increase - Index Value” is 0 and the “SGOT Increase - Number of Reports” value was below 4.

In the case of `CC(C)(C)NC[C@H](O)COc1nsnc1N1CCOCC1` [TIMOLOL], the “SGOT Increase - Activity Score” value is reported as “Inactive”, the “SGOT Increase - Index Value” stood at 0.1 and the “SGOT Increase - Number of Reports” value is below 4.

As to `Clc1ccc(C(Cn2ccnc2)OCc2ccsc2Cl)c(Cl)c1` (stereo not given) [TIOCONAZOLE], the “SGOT Increase - Activity Score” value is “Inactive”, the “SGOT Increase - Index Value” is given as 0 and the “SGOT Increase - Number of Reports” value is given as below 4.

For another series, the system named is Hepatotoxicity. Nature of the series: FDA HLAED, lactate dehydrogenase (LDH) increase. Conditions: human.
On to `C[C@]12CC[C@H]3[C@@H](CCC4=CC(=O)CC[C@@]43C)[C@@H]1CC[C@@H]2O` [TESTOSTERONE], for which the “LDH Increase - Activity Score” value is listed as “Inactive”, the “LDH Increase - Index Value” worked out at 2.4 and the “LDH Increase - Number of Reports” value was below 4.

As for `Cn1c(=O)c2[nH]cnc2n(C)c1=O.O` [THEOPHYLLINE], the “LDH Increase - Activity Score” value was “Inactive”, the “LDH Increase - Index Value” stood at 0 and the “LDH Increase - Number of Reports” value is on record as below 4.

Take `Clc1ccccc1CN1CCc2sccc2C1` [TICLOPIDINE]: the “LDH Increase - Activity Score” value was “Inactive”, the “LDH Increase - Index Value” is 0 and the “LDH Increase - Number of Reports” value is below 4.

As to `CC(C)(C)NC[C@H](O)COc1nsnc1N1CCOCC1` [TIMOLOL], the “LDH Increase - Activity Score” value is reported as “Inactive”, the “LDH Increase - Index Value” was 0.1 and the “LDH Increase - Number of Reports” value is on record as below 4.

Consider `Clc1ccc(C(Cn2ccnc2)OCc2ccsc2Cl)c(Cl)c1` (stereo not given) [TIOCONAZOLE], for which the “LDH Increase - Activity Score” value is given as “Inactive”, the “LDH Increase - Index Value” is 0 and the “LDH Increase - Number of Reports” value was below 4.

In a further series the test system is Hepatotoxicity. Nature of the series: FDA HLAED, liver enzyme composite activity. The settings on record: human.
As to `C[C@]12CC[C@H]3[C@@H](CCC4=CC(=O)CC[C@@]43C)[C@@H]1CC[C@@H]2O` [TESTOSTERONE], the “Composite Activity - Active” value was determined as 0, the “Composite Activity - Marginal” value is 0 and the “Composite Activity - Score” value is “Inactive”.

For the molecule `Cn1c(=O)c2[nH]cnc2n(C)c1=O.O` [THEOPHYLLINE], the “Composite Activity - Active” value is listed as 0, the “Composite Activity - Marginal” value was found to be 0 and the “Composite Activity - Score” value is recorded as “Inactive”.

As for `CC(C)(C)NC[C@H](O)COc1nsnc1N1CCOCC1` [TIMOLOL], the “Composite Activity - Active” value is listed as 0, the “Composite Activity - Marginal” value is 0 and the “Composite Activity - Score” value is on record as “Inactive”.

Staying with this series, now noted: human, Liver.
As for `Clc1ccccc1CN1CCc2sccc2C1` [TICLOPIDINE], the “Composite Activity - Active” value turned out to be 0, the “Composite Activity - Marginal” value is 0 and the “Composite Activity - Score” value was “Inactive”.

As to `Clc1ccc(C(Cn2ccnc2)OCc2ccsc2Cl)c(Cl)c1` (stereo not given) [TIOCONAZOLE], the “Composite Activity - Active” value is on record as 0, the “Composite Activity - Marginal” value is on record as 0 and the “Composite Activity - Score” value is reported as “Inactive”.

A further series relates to Hepatotoxicity. Nature of the series: FDA HLAED, gamma-glutamyl transferase (GGT) increase. The settings on record: human.
Consider `C[C@]12CC[C@H]3[C@@H](CCC4=CC(=O)CC[C@@]43C)[C@@H]1CC[C@@H]2O` [TESTOSTERONE], for which the “GGT Increase - Activity Score” value is “Inactive”, the “GGT Increase - Index Value” was 4.8 and the “GGT Increase - Number of Reports” value was below 4.

Take `Cn1c(=O)c2[nH]cnc2n(C)c1=O.O` [THEOPHYLLINE]: the “GGT Increase - Activity Score” value is reported as “Inactive”, the “GGT Increase - Index Value” turned out to be 0 and the “GGT Increase - Number of Reports” value was below 4.

With `Clc1ccccc1CN1CCc2sccc2C1` [TICLOPIDINE], the “GGT Increase - Activity Score” value is reported as “Inactive”, the “GGT Increase - Index Value” turned out to be 0 and the “GGT Increase - Number of Reports” value is below 4.

On to `CC(C)(C)NC[C@H](O)COc1nsnc1N1CCOCC1` [TIMOLOL], for which the “GGT Increase - Activity Score” value is recorded as “Inactive”, the “GGT Increase - Index Value” was found to be 0 and the “GGT Increase - Number of Reports” value was below 4.

`Clc1ccc(C(Cn2ccnc2)OCc2ccsc2Cl)c(Cl)c1` (stereo not given) [TIOCONAZOLE]: the “GGT Increase - Activity Score” value is recorded as “Inactive”, the “GGT Increase - Index Value” came to 0 and the “GGT Increase - Number of Reports” value is below 4.

The test system of another series is Hepatotoxicity. Nature of the series: FDA HLAED, alkaline phosphatase increase. Conditions: human.
Take `C[C@]12CC[C@H]3[C@@H](CCC4=CC(=O)CC[C@@]43C)[C@@H]1CC[C@@H]2O` [TESTOSTERONE]: the “Alkaline Phosphatase Increase - Activity Score” value is listed as “Inactive”, the “Alkaline Phosphatase Increase - Index Value” was 0 and the “Alkaline Phosphatase Increase - Number of Reports” value is below 4.

Consider `Cn1c(=O)c2[nH]cnc2n(C)c1=O.O` [THEOPHYLLINE], for which the “Alkaline Phosphatase Increase - Activity Score” value was “Inactive”, the “Alkaline Phosphatase Increase - Index Value” was found to be 0 and the “Alkaline Phosphatase Increase - Number of Reports” value is reported as below 4.

For the molecule `Clc1ccccc1CN1CCc2sccc2C1` [TICLOPIDINE], the “Alkaline Phosphatase Increase - Activity Score” value is “Inactive”, the “Alkaline Phosphatase Increase - Index Value” worked out at 0 and the “Alkaline Phosphatase Increase - Number of Reports” value is recorded as below 4.

As for `CC(C)(C)NC[C@H](O)COc1nsnc1N1CCOCC1` [TIMOLOL], the “Alkaline Phosphatase Increase - Activity Score” value is listed as “Inactive”, the “Alkaline Phosphatase Increase - Index Value” is listed as 0.1 and the “Alkaline Phosphatase Increase - Number of Reports” value is on record as below 4.

As for `Clc1ccc(C(Cn2ccnc2)OCc2ccsc2Cl)c(Cl)c1` (stereo not given) [TIOCONAZOLE], the “Alkaline Phosphatase Increase - Activity Score” value is on record as “Inactive”, the “Alkaline Phosphatase Increase - Index Value” worked out at 0 and the “Alkaline Phosphatase Increase - Number of Reports” value is listed as below 4.

(Values after ChEMBL document CHEMBL1697781, “Assessment of the health effects of chemicals in humans: II. Construction of an adverse effects database for QSAR modeling” (Curr Drug Discov Technol, 2004).)
Throughout, for GGT Increase - Index Value: reference of the scale not given here.
Throughout, for LDH Increase - Index Value: reference of the scale not given here.
